The term IC50 denotes the concentration that gives 50% inhibition. A low value points to greater potency in that assay.

Where only a bound is given, the exact number is not on record here.

The target of the test is T1, human PD-L1 / human PD-1 interaction (Homo sapiens, UniProt Q9NZQ7).
T1 construct: purchased R&D (PD-L1); ACRO Biosystems (PD-1, biotin)
T1 sequence (Q9NZQ7 19-239 limits assumed): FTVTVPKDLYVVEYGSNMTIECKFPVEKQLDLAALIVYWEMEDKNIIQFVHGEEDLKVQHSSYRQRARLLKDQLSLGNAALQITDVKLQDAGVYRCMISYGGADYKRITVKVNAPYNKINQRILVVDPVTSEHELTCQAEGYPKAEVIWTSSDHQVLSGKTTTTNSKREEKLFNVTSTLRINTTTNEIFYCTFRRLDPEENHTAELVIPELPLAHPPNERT
The test is described as follows: ELISA of PD-1/PD-L1 interaction. It is filed as binding. Summed up:
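Plates coated with 1 μg/mL human PD-L1 and blocked with BSA; serially diluted (1:5) compounds plus biotinylated human PD-1 (0.3 μg/mL) incubated 1 h at 37° C. Bound PD-1 detected with streptavidin-HRP/TMB, absorbance at 450 nm.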
A general note: An ELISA detects its analyte on a solid surface through an enzyme-linked reagent.
`Cc1c(OCCCN2CCC(F)CC2)cccc1-c1cccc2c1CC[C@@H]2Oc1cc(OCc2cncc(C#N)c2)c(CN[C@H](C(=O)O)[C@@H](C)O)cc1Cl` had an IC50 below 5 nM.
`Cc1c(OCCCN2CCC(F)(F)CC2)cccc1-c1cccc2c1CC[C@@H]2Oc1cc(OCc2cncc(C#N)c2)c(CN[C@H](C(=O)O)[C@@H](C)O)cc1Cl` yielded an IC50 of 5 to 500 nM.
Then `Cc1c(OCCCN2CCC(CO)CC2)cccc1-c1cccc2c1CC[C@@H]2Oc1cc(OCc2cncc(C#N)c2)c(CN[C@H](C(=O)O)[C@@H](C)O)cc1Cl`, with below 5 nM; and `Cc1c(OCCCN2CC(O)C2)cccc1-c1cccc2c1CC[C@@H]2Oc1cc(OCc2cncc(C#N)c2)c(CN[C@H](C(=O)O)[C@@H](C)O)cc1Cl`, with below 5 nM.
With `C[C@@](CO)(NCc1cc(Cl)c(O[C@H]2CCc3c(-c4cccc(OCCCN5CCC(O)CC5)c4Cl)cccc32)cc1OCc1cncc(C#N)c1)C(=O)O` the figure was below 5 nM; with `N#Cc1cncc(COc2cc(O[C@H]3CCc4c(-c5cccc(OCCCN6CCC(O)CC6)c5Cl)cccc43)c(Cl)cc2CN[C@@H](CO)C(=O)O)c1`, below 5 nM.
Turning to `C[C@@H](O)[C@H](NCc1cc(Cl)c(O[C@H]2CCc3c(-c4cccc(OCCCN5CCC(O)CC5)c4Cl)cccc32)cc1OCc1cncc(C#N)c1)C(=O)O`, the IC50 was below 5 nM.
Then `C[C@@](CO)(NCc1cc(Cl)c(O[C@H]2CCc3c(-c4cccc(OCCCN5CCC5)c4Cl)cccc32)cc1OCc1cncc(C#N)c1)C(=O)O`, with below 5 nM; and `N#Cc1cncc(COc2cc(O[C@H]3CCc4c(-c5cccc(OCCCN6CC7(CCC7)C6)c5Cl)cccc43)c(Cl)cc2CN[C@@H]2CCCC[C@@H]2O)c1`, with below 5 nM; and `C[C@@H](O)[C@H](NCc1cc(Cl)c(O[C@H]2CCc3c(-c4cccc(OCCCN5CCC(F)CC5)c4Cl)cccc32)cc1OCc1cncc(C#N)c1)C(=O)NS(C)(=O)=O`, with below 5 nM.
Molecule `N#Cc1cncc(COc2cc(O[C@H]3CCc4c(-c5cccc(OCCCN6CCC(F)CC6)c5Cl)cccc43)c(Cl)cc2CN[C@@H]2CCOC[C@H]2O)c1` registered an IC50 below 5 nM.
With `N#Cc1cncc(COc2cc(O[C@H]3CCc4c(-c5cccc(OCCCN6CCC(F)CC6)c5Cl)cccc43)c(Cl)cc2CN[C@@H]2CCOC[C@@H]2O)c1` the figure was below 5 nM.
With `N#Cc1cncc(COc2cc(O[C@H]3CCc4c(-c5cccc(OCCCN6CCC(F)CC6)c5Cl)cccc43)c(Cl)cc2CN[C@H]2CCOC[C@H]2O)c1` the figure was below 5 nM.
With `N#Cc1cncc(COc2cc(O[C@H]3CCc4c(-c5cccc(OCCCN6CC7(CC(O)C7)C6)c5Cl)cccc43)c(Cl)cc2CN[C@@H]2CCC[C@@H]2O)c1` the figure was below 5 nM; with `N#Cc1cncc(COc2cc(O[C@H]3CCc4c(-c5cccc(OCCCN6CC7(CC(O)C7)C6)c5Cl)cccc43)c(Cl)cc2CN[C@@H]2CCC[C@H]2O)c1`, below 5 nM; with `N#Cc1cncc(COc2cc(O[C@H]3CCc4c(-c5cccc(OCCCN6CC7(CC(O)C7)C6)c5Cl)cccc43)c(Cl)cc2CN[C@H]2CCC[C@H]2O)c1`, below 5 nM.
`N#Cc1cncc(COc2cc(O[C@H]3CCc4c(-c5cccc(OCCCN6CC7(CC(O)C7)C6)c5Cl)cccc43)c(Cl)cc2CN[C@H]2CCC[C@@H]2O)c1` gave an IC50 below 5 nM.
Regarding `N#Cc1cc(C#N)cc(COc2cc(O[C@H]3CCc4c(-c5cccc(OCCCN6CCC(F)CC6)c5Cl)cccc43)c(Cl)cc2CNC[C@H]2CCC(=O)N2)c1`, the IC50 is below 5 nM.
Then `N#Cc1cncc(COc2cc(O[C@H]3CCc4c(-c5cccc(OCCCN6CC7(CC(F)C7)C6)c5Cl)cccc43)c(Cl)cc2CN[C@@H]2CCC[C@@H]2O)c1`, with below 5 nM; and `N#Cc1cncc(COc2cc(O[C@H]3CCc4c(-c5cccc(OCCCN6CC7(CC(F)C7)C6)c5Cl)cccc43)c(Cl)cc2CN[C@@H]2CCC[C@H]2O)c1`, with below 5 nM; and `Cc1c(OCCCN2CCCCC2)cccc1-c1cccc2c1CC[C@@H]2Oc1cc(OCc2cc(C#N)cc(C#N)c2)c(CNC[C@H]2CCC(=O)N2)cc1Cl`, with below 5 nM.
With `Cc1c(OCCCN2CCCCC2)cccc1-c1cccc2c1CC[C@@H]2Oc1cc(OCc2cc(C#N)cc(C#N)c2)c(CN[C@@H]2CCCC[C@@H]2O)cc1Cl` the figure was below 5 nM.
In turn, `Cc1c(OCCCN2CCC(F)CC2)cccc1-c1cccc2c1CC[C@@H]2Oc1cc(OCc2cc(C#N)cc(C#N)c2)c(CN[C@@H]2CCC[C@@H]2O)cc1Cl` came in with a half-inhibitory concentration (IC50) below 5 nM.
With `Cc1c(OCCCN2CCC(F)CC2)cccc1-c1cccc2c1CC[C@@H]2Oc1cc(OCc2cc(C#N)cc(C#N)c2)c(CN[C@@H]2CCOC[C@H]2O)cc1Cl` the figure was below 5 nM.
Then `Cc1c(OCCCN2CCC(F)CC2)cccc1-c1cccc2c1CC[C@@H]2Oc1cc(OCc2cc(C#N)cc(C#N)c2)c(CN[C@@H]2CCC[C@H]2O)cc1Cl`, with below 5 nM.
With `Cc1c(OCCCN2CCC(F)CC2)cccc1-c1cccc2c1CC[C@@H]2Oc1cc(OCc2cc(C#N)cc(C#N)c2)c(CN[C@H]2CCC[C@@H]2O)cc1Cl` the figure was below 5 nM; with `N#Cc1cncc(COc2cc(O[C@H]3CCc4c(-c5cccc(OCCCN6CCC(F)CC6)c5Cl)cccc43)c(Cl)cc2CN2CC3(C2)NC(=O)NC3=O)c1`, below 5 nM.
Molecule `N#Cc1cncc(COc2cc(O[C@H]3CCc4c(-c5cccc(OCCCN6CCC(F)CC6)c5Cl)cccc43)c(Cl)cc2CN[C@H]2CC[C@@H]2O)c1` displayed an IC50 below 5 nM.
With `Cc1c(OCCCN2CCC(F)CC2)cccc1-c1cccc2c1CC[C@@H]2Oc1cc(OCc2cc(C#N)cc(C#N)c2)c(CN[C@H]2CCC[C@H]2O)cc1Cl` the figure was below 5 nM.
With `Cc1c(OCCCN2CCC(F)CC2)cccc1-c1cccc2c1CC[C@@H]2Oc1cc(OCc2cc(C#N)cc(C#N)c2)c(CN[C@H]2CCOC[C@H]2O)cc1Cl` the figure was below 5 nM; with `N#Cc1cncc(COc2cc(O[C@H]3CCc4c(-c5cccc(OCCCN6CC7(CC(F)C7)C6)c5Cl)cccc43)c(Cl)cc2CN[C@H]2CCC[C@H]2O)c1`, below 5 nM; with `N#Cc1cncc(COc2cc(O[C@H]3CCc4c(-c5cccc(OCCCN6CCC6)c5Cl)cccc43)c(Cl)cc2CN[C@@H]2CCCC[C@@H]2O)c1`, below 5 nM.
In the case of `N#Cc1cncc(COc2cc(O[C@H]3CCc4c(-c5cccc(OCCCN6CC7(CC(F)C7)C6)c5Cl)cccc43)c(Cl)cc2CN[C@H]2CCC[C@@H]2O)c1`, the IC50 is below 5 nM.
Then `N#Cc1cncc(COc2cc(O[C@H]3CCc4c(-c5cccc(OCCCN6CCC6)c5Cl)cccc43)c(Cl)cc2CNC[C@H]2CCC(=O)N2)c1`, with below 5 nM; and `N#Cc1cncc(COc2cc(O[C@H]3CCc4c(-c5cccc(OCCCN6CC7(CC(F)C7)C6)c5Cl)cccc43)c(Cl)cc2CNC[C@@H]2CCC(=O)N2)c1`, with below 5 nM.
Then `N#Cc1cncc(COc2cc(O[C@H]3CCc4c(-c5cccc(OCCCN6CC7(CC(F)C7)C6)c5Cl)cccc43)c(Cl)cc2CNC[C@H]2CCC(=O)N2)c1`, with below 5 nM; and `CN1CCC(COc2cccc(-c3cccc4c3CC[C@@H]4Oc3cc(OCc4cncc(C#N)c4)c(CN[C@@H]4CCCC[C@@H]4O)cc3Cl)c2Cl)C1` (some centres unmarked), with below 5 nM.
Then `CN1CCC(COc2cccc(-c3cccc4c3CC[C@@H]4Oc3cc(OCc4cncc(C#N)c4)c(CNC[C@H]4CCC(=O)N4)cc3Cl)c2Cl)C1` (some centres unmarked), with below 5 nM.
`N#Cc1cncc(COc2cc(O[C@H]3CCc4c(-c5cccc(OCCCN6CC7(C6)CC(F)(F)C7)c5Cl)cccc43)c(Cl)cc2CN[C@@H]2CCC[C@@H]2O)c1` returned an IC50 below 5 nM.
Then `N#Cc1cncc(COc2cc(O[C@H]3CCc4c(-c5cccc(OCCCN6CC7(C6)CC(F)(F)C7)c5Cl)cccc43)c(Cl)cc2CN[C@@H]2CCC[C@H]2O)c1`, with below 5 nM.
Then `N#Cc1cncc(COc2cc(O[C@H]3CCc4c(-c5cccc(OCCCN6CC7(C6)CC(F)(F)C7)c5Cl)cccc43)c(Cl)cc2CN[C@H]2CCC[C@H]2O)c1`, with below 5 nM.
Take `N#Cc1cncc(COc2cc(O[C@H]3CCc4c(-c5cccc(OCCCN6CC7(C6)CC(F)(F)C7)c5Cl)cccc43)c(Cl)cc2CN[C@H]2CCC[C@@H]2O)c1`: the IC50 is below 5 nM.
Then `Cc1c(OCCCN2CC3(CCC3)C2)cccc1-c1cccc2c1CC[C@@H]2Oc1cc(OCc2cc(C#N)cc(C#N)c2)c(CNC[C@@H]2CCC(=O)N2)cc1Cl`, with below 5 nM.
With `Cc1c(OCCCN2CCC(C)CC2)cccc1-c1cccc2c1CC[C@@H]2Oc1cc(OCc2cc(C#N)cc(C#N)c2)c(CNC[C@H]2CCC(=O)N2)cc1Cl` the figure was below 5 nM.
In turn, `Cc1c(OCCCN2CCC(C)CC2)cccc1-c1cccc2c1CC[C@@H]2Oc1cc(OCc2cc(C#N)cc(C#N)c2)c(CNC[C@@H]2CCC(=O)N2)cc1Cl` showed an IC50 below 5 nM.
Then `Cc1c(OCCCN2CC3(CC(O)C3)C2)cccc1-c1cccc2c1CC[C@@H]2Oc1cc(OCc2cc(C#N)cc(C#N)c2)c(CNC[C@H]2CCC(=O)N2)cc1Cl`, with below 5 nM.
The molecule `Cc1c(OCCCN2CCC(C)(F)CC2)cccc1-c1cccc2c1CC[C@@H]2Oc1cc(OCc2cncc(C#N)c2)c(CNC[C@@H]2CCC(=O)N2)cc1Cl` had an IC50 below 5 nM.
With `N#Cc1cncc(COc2cc(O[C@H]3CCc4c(-c5cccc(OCCCN6CCC(F)CC6)c5Cl)cccc43)c(Cl)cc2CN[C@@H]2CC[C@H]2O)c1` the figure was below 5 nM; with `N#Cc1cncc(COc2cc(O[C@H]3CCc4c(-c5cccc(OCCCN6CC7(CC(F)C7)C6)c5Cl)cccc43)c(Cl)cc2CN[C@H]2CC[C@@H]2O)c1`, below 5 nM.
For `N#Cc1cncc(COc2cc(O[C@H]3CCc4c(-c5cccc(OCCCN6CC7(CC(F)C7)C6)c5Cl)cccc43)c(Cl)cc2CN[C@@H]2CC[C@H]2O)c1`, the half-inhibitory concentration (IC50) is below 5 nM.
In turn, `Cc1c(OCCCN2CC3(CC(F)C3)C2)cccc1-c1cccc2c1CC[C@@H]2Oc1cc(OCc2cc(C#N)cc(C#N)c2)c(CN[C@H]2CCC(=O)NC2)cc1Cl` returned an IC50 below 5 nM.
With `Cc1c(OCCCN2CCC(F)CC2)cccc1-c1cccc2c1CC[C@@H]2Oc1cc(OCc2cc(C#N)cc(C#N)c2)c(CN[C@@H]2CCC(=O)NC2)cc1Cl` the figure was below 5 nM.
As to `N#Cc1cncc(COc2cc(O[C@H]3CCc4c(-c5cccc(OCCCN6CC7(C6)CC(F)(F)C7)c5Cl)cccc43)c(Cl)cc2CN[C@@H]2CC[C@H]2O)c1`, the IC50 was below 5 nM.

For the origin of these results see patent US20210236476A1, “METHODS OF TREATING CANCER WITH SMALL MOLECULE PD-L1 INHIBITORS” (CHEMOCENTRYX, INC., priority 2018, published 2021).
